According to ChEMBL document CHEMBL5096163, “Current status in the discovery of dual BET/HDAC inhibitors” (Bioorg Med Chem Lett, 2021):

Assays:
[1] = biological target: Histone deacetylase 1 (Homo sapiens) (UniProt Q13547); assay: Inhibition of HDAC1 (unknown origin) at 10 uM relative to control
[2] = biological target: Histone deacetylase 3 (Homo sapiens, UniProt O15379); assay: Inhibition of human recombinant HDAC3 using Boc-Lys(Ac)-AMC fluorogenic substrate measured after 60 mins by fluorescence assay
[3] = test system: U-937; assay: Cytotoxicity against human U-937 cells assessed as reduction in cell viability at 3 uM incubated for 24 hrs by MTT assay relative to control; type: functional

Histone deacetylase 3, sequence (O15379 whole entry): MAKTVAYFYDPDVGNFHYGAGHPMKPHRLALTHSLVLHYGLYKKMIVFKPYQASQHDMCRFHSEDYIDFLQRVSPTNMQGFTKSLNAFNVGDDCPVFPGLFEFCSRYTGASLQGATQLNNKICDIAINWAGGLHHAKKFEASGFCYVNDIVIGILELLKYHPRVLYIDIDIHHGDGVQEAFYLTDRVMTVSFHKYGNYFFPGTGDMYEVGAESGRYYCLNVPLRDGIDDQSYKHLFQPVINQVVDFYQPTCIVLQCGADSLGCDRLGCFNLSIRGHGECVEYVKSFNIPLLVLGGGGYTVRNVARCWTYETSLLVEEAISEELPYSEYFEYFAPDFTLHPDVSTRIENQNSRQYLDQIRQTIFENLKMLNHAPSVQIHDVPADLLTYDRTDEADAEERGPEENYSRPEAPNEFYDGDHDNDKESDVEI
Histone deacetylase 1 (Homo sapiens), sequence (Q13547 whole entry): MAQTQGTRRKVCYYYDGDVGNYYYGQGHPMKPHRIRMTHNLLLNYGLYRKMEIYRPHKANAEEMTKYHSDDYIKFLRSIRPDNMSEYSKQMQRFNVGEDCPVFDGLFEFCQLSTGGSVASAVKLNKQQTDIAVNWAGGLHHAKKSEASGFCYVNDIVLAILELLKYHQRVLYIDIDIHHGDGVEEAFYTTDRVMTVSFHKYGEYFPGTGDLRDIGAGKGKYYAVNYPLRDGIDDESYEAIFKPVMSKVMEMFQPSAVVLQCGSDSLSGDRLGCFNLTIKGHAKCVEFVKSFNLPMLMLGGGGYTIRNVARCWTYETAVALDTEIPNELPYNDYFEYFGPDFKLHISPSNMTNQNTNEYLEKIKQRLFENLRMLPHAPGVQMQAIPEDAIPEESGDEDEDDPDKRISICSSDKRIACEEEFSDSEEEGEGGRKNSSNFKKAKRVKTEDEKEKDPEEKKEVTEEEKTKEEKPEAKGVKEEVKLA

inhibition [1] [%]	IC50 [2] [nM]	Compound	Activity [3] [%]
88	5	Cc1noc(C)c1-c1cnc2c(c1)c(Cc1ccc(F)cc1)cn2CCCCCCC(=O)NO	
	60	O=C(CCCCCCn1cc(Cc2ccccc2)c2cccnc21)NO	
		Cc1sc2c(c1C)C(c1ccc(Cl)cc1)=N[C@@H](CC(=O)NCCCC(=O)Nc1ccccc1N)c1nnc(C)n1-2	16.12
	5	COC(c1c(F)cccc1Cl)c1c[nH]c2ncc(-c3c(C)noc3C)cc12 (stereo not given)	
